Laboratory results reported in US20120172351A1, “NOVEL FUSED CYCLIC COMPOUND AND USE THEREOF” (priority 2009, published 2012).

Target: T1, human derived GPR40 (Homo sapiens, UniProt O14842)
T1 construct: expressed in transfected cells
Test: Agonist action on human derived GPR40: change of intracellular calcium concentration in CHO cells (FLIPRtetra)
Assay type: cell-based
Details: agonist activity of compound at 1 μM, relative to 10 μM γ linolenic acid as 100%, wave peak height; CHO cells stably expressing human GPR40
Procedure: The CHO cell lines that stably expressed human derived GPR40 were used for the determination of the agonist activity. Unless particularly specified, the CHO cell lines were cultured in an α-MEM medium (Wako Pure Chemical Industries, Ltd.) containing 10% dialyzed fetal bovine serum (TRA Thermo Electron).
The cells cultured almost to confluent on the day before assay were rinsed with PBS (Invitrogen), detached with 0.5 mM EDTA (Wako Pure Chemical Industries, Ltd.), and recovered by centrifugation. The obtained cells were counted, diluted to 2×10^5 cells per 1 mL medium, dispensed by 40 μL per well to a 384 well black clear bottomplate (PE Biosystems), and cultured overnight in a CO2 incubator. Various test compounds were added to CHO cells prepared as mentioned above, and change of intracellular calcium concentration was measured using FLIPRtetra (Molecular Device). For the measurement by this device, a Calcium 4 assay kit (Molecular Devices: R8142) was used.
First, fatty acid free BSA at the final concentration of 0.1% was added to the buffer attached to the kit to prepare an assay buffer. Using the assay buffer, a loading solution with Fluo4 was prepared such that the final concentration of fatty acid free BSA was 0.1% and the final concentration of probenecid was 625 μM. On the other hand, a test compound was diluted with the assay buffer to a given concentration, and dispensed to the polypropylene 384-well plate (sample plate). The medium was removed from the cell culture plate, and the loading solution with Fluo4 was dispensed by 25 μL. After culture in a CO2 incubator at 37° C. for 40 min, a sample plate and a cell plate were simultaneously set on the FLIPRtetra, various test compounds were added by 25 μL according to the program of the device, and change of intracellular calcium concentration was measured. The agonist activity of each compound at 1 μM was calculated as a relative activity value to the activity of 10 μM γ linolenic acid as 100% from the wave peak height.

T1 sequence (O14842 whole entry): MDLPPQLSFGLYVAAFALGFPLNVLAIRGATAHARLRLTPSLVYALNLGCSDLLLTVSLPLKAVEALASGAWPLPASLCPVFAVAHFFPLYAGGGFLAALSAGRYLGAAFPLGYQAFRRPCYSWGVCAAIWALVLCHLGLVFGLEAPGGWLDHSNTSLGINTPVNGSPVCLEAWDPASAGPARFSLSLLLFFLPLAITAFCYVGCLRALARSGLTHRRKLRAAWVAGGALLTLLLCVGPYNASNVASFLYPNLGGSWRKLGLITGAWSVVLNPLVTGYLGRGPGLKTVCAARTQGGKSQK

| Compound | activity (%) |
| --- | --- |
| Cc1cc(-c2cccc3c2OC[C@H]3Nc2ccc3c(c2)OC[C@H]3CC(=O)O)c(C)s1 [Example 3, [(3S)-6-{[(3S)-7-(2,5-dimethylthiophen-3-yl)-2,3-dihydro-1-benzofuran-3-yl]amino}-2,3-dihydro-1-benzofuran-3-yl]acetic acid] | 128 |
| CCc1nc2ccccc2n1-c1cccc2c1OC[C@H]2Nc1ccc2c(c1)OC[C@H]2CC(=O)[O-].[Na+] [Example 19, sodium [(3S)-6-{[(3S)-7-(2-ethyl-1H-benzimidazol-1-yl)-2,3-dihydro-1-benzofuran-3-yl]amino}-2,3-dihydro-1-benzofuran-3-yl]acetate] | 129 |
| CCOc1nc2ccc(F)cc2n1-c1cccc2c1OC[C@H]2Nc1ccc2c(c1)OC[C@H]2CC(=O)[O-].[Na+] [Example 25, sodium [(3S)-6-{[(3S)-7-(2-ethoxy-6-fluoro-1H-benzimidazol-1-yl)-2,3-dihydro-1-benzofuran-3-yl]amino}-2,3-dihydro-1-benzofuran-3-yl]acetate] | 129 |
| CCc1nc2ccc(F)c(F)c2n1-c1cccc2c1OC[C@H]2Nc1ccc2c(c1)OC[C@H]2CC(=O)[O-].[Na+] [Example 31, sodium [(3S)-6-{[(3S)-7-(2-ethyl-6,7-difluoro-1H-benzimidazol-1-yl)-2,3-dihydro-1-benzofuran-3-yl]amino}-2,3-dihydro-1-benzofuran-3-yl]acetate] | 127 |
| CCOc1nc2c(F)cc(F)cc2n1-c1cccc2c1OC[C@H]2Nc1ccc2c(c1)OC[C@H]2CC(=O)[O-].[Na+] [Example 37, sodium [(3S)-6-{[(3S)-7-(2-ethoxy-4,6-difluoro-1H-benzimidazol-1-yl)-2,3-dihydro-1-benzofuran-3-yl]amino}-2,3-dihydro-1-benzofuran-3-yl]acetate] | 117 |
| Cc1nn(C(F)F)c(C)c1-c1cccc2c1OCC2Nc1ccc2c(c1)OC[C@H]2CC(=O)O (stereo partly drawn) [Example 67, [(3S)-6-({7-[1-(difluoromethyl)-3,5-dimethyl-1H-pyrazol-4-yl]-2,3-dihydro-1-benzofuran-3-yl}amino)-2,3-dihydro-1-benzofuran-3-yl]acetic acid] | 111 |
| Cc1nc(N2CCOCC2)nc(C)c1-c1cccc2c1OC[C@H]2Nc1ccc2c(c1)OC[C@H]2CC(=O)O [Example 77-2, [(3S)-6-({(3S)-7-[4,6-dimethyl-2-(morpholin-4-yl)pyrimidin-5-yl]-2,3-dihydro-1-benzofuran-3-yl}amino)-2,3-dihydro-1-benzofuran-3-yl]acetic acid] | 132 |
| O=C([O-])C[C@@H]1COc2cc(N[C@@H]3COc4c3cccc4N3CCOc4ccccc43)ccc21.[Na+] [Example 86, sodium [(3S)-6-{[(3S)-7-(2,3-dihydro-4H-1,4-benzooxazin-4-yl)-2,3-dihydro-1-benzofuran-3-yl]amino}-2,3-dihydro-1-benzofuran-3-yl]acetate] | 128 |
| CCN(c1ccc(C#N)cc1F)c1cccc2c1OC[C@H]2Nc1ccc2c(c1)OC[C@H]2CC(=O)O [Example 89, [(3S)-6-({(3S)-7-[(4-cyano-2-fluorophenyl)(ethyl)amino]-2,3-dihydro-1-benzofuran-3-yl}amino)-2,3-dihydro-1-benzofuran-3-yl]acetic acid] | 129 |
| Cc1nc2ccc(OCC(F)(F)F)cc2n1-c1cccc2c1OC[C@H]2Nc1ccc2c(c1)OC[C@H]2CC(=O)[O-].[Na+] [Example 99, sodium [(3S)-6-({(3S)-7-[2-methyl-6-(2,2,2-trifluoroethoxy)-1H-benzimidazol-1-yl]-2,3-dihydro-1-benzofuran-3-yl}amino)-2,3-dihydro-1-benzofuran-3-yl]acetate] | 123 |
| Cc1nn(C(F)F)c(C)c1-c1cccc(CNc2ccc3c(c2)OC[C@H]3CC(=O)O)c1C [Example 109, [(3S)-6-({3-[1-(difluoromethyl)-3,5-dimethyl-1H-pyrazol-4-yl]-2-methylbenzyl}amino)-2,3-dihydro-1-benzofuran-3-yl]acetic acid] | 122 |
| Cc1nc(OC(F)F)nc(C)c1-c1cccc(CNc2ccc3c(c2)OC[C@H]3CC(=O)O)c1C [Example 114, [(3S)-6-({3-[2-(difluoromethoxy)-4,6-dimethylpyrimidin-5-yl]-2-methylbenzyl}amino)-2,3-dihydro-1-benzofuran-3-yl]acetic acid] | 132 |
| Cc1cc(-c2cccc(CNc3ccc4c(c3)OC[C@H]4CC(=O)O)c2F)c(C)s1 [Example 121, [(3S)-6-{[3-(2,5-dimethylthiophen-3-yl)-2-fluorobenzyl]amino}-2,3-dihydro-1-benzofuran-3-yl]acetic acid] | 129 |
| Cc1c(CNc2ccc3c(c2)OC[C@H]3CC(=O)O)cccc1-n1c(C)nc2cc(C(F)(F)F)ccc21 [Example 131, [(3S)-6-({2-methyl-3-[2-methyl-5-(trifluoromethyl)-1H-benzimidazol-1-yl]benzyl}amino)-2,3-dihydro-1-benzofuran-3-yl]acetic acid] | 129 |
| COc1ccc2c(c1)nc(C1CC1)n2-c1cccc(CNc2ccc3c(c2)OC[C@H]3CC(=O)O)c1C [Example 149, [(3S)-6-{[3-(2-cyclopropyl-5-methoxy-1H-benzimidazol-1-yl)-2-methylbenzyl]amino}-2,3-dihydro-1-benzofuran-3-yl]acetic acid] | 90 |
| Cc1c(CNc2ccc3c(c2)OC[C@H]3CC(=O)O)cccc1-n1c(C)nc2c(C)cccc21 [Example 153, [(3S)-6-{[3-(2,4-dimethyl-1H-benzimidazol-1-yl)-2-methylbenzyl]amino}-2,3-dihydro-1-benzofuran-3-yl]acetic acid] | 111 |
| CCc1nc2ccc(Cl)cc2n1-c1cccc(CNc2ccc3c(c2)OC[C@H]3CC(=O)[O-])c1C.[Na+] [Example 173, sodium [(3S)-6-{[3-(6-chloro-2-ethyl-1H-benzimidazol-1-yl)-2-methylbenzyl]amino}-2,3-dihydro-1-benzofuran-3-yl]acetate] | 121 |
| CCOc1nc2c(OCC(F)(F)F)cccc2n1-c1cccc(CNc2ccc3c(c2)OC[C@H]3CC(=O)O)c1C [Example 180, [(3S)-6-({3-[2-ethoxy-4-(2,2,2-trifluoroethoxy)-1H-benzimidazol-1-yl]-2-methylbenzyl}amino)-2,3-dihydro-1-benzofuran-3-yl]acetic acid] | 125 |
| Cc1nc2ccccn2c1-c1cccc(CNc2ccc3c(c2)OC[C@H]3CC(=O)O)c1C [Example 201, [(3S)-6-{[2-methyl-3-(2-methylimidazo[1,2-a]pyridin-3-yl)benzyl]amino}-2,3-dihydro-1-benzofuran-3-yl]acetic acid] | 124 |
| COc1ccc(-c2c(C(F)(F)F)ccc(CNc3ccc4c(c3)OC[C@H]4CC(=O)O)c2C)cn1 [Example 207, [(3S)-6-{[3-(6-methoxypyridin-3-yl)-2-methyl-4-(trifluoromethyl)benzyl]amino}-2,3-dihydro-1-benzofuran-3-yl]acetic acid] | 121 |
| Cc1ccc(CNc2ccc3c(c2)OC[C@H]3CC(=O)O)c(C)c1-c1ccc2nc(C(F)(F)F)cn2c1 [Example 219, [(3S)-6-({2,4-dimethyl-3-[2-(trifluoromethyl)imidazo[1,2-a]pyridin-6-yl]benzyl}amino)-2,3-dihydro-1-benzofuran-3-yl]acetic acid] | 125 |
| Cc1oc2cccnc2c1-c1cccc(CNc2ccc3c(c2)OC[C@H]3CC(=O)O)c1C [Example 221, [(3S)-6-{[2-methyl-3-(2-methylfuro[3,2-b]pyridin-3-yl)benzyl]amino}-2,3-dihydro-1-benzofuran-3-yl]acetic acid] | 126 |
| Cc1oc2ncccc2c1-c1cccc(CNc2ccc3c(c2)OC[C@H]3CC(=O)O)c1C [Example 223, [(3S)-6-{[2-methyl-3-(2-methylfuro[2,3-b]pyridin-3-yl)benzyl]amino}-2,3-dihydro-1-benzofuran-3-yl]acetic acid] | 111 |
| CCOc1nc2ccc(F)cc2n1-c1cccc2c1CCC2Nc1ccc2c(c1)OC[C@H]2CC(=O)[O-].[Na+] (stereo partly drawn) [Example 227, sodium [(3S)-6-{[4-(2-ethoxy-6-fluoro-1H-benzimidazol-1-yl)-2,3-dihydro-1H-inden-1-yl]amino}-2,3-dihydro-1-benzofuran-3-yl]acetate] | 105 |
| CCCN(c1ccc(F)cn1)c1cccc(CNc2ccc3c(c2)OC[C@H]3CC(=O)O)c1C [Example 232, [(3S)-6-({3-[(5-fluoropyridin-2-yl)(propyl)amino]-2-methylbenzyl}amino)-2,3-dihydro-1-benzofuran-3-yl]acetic acid] | 121 |
| Cc1nc(N2CCOCC2)nc(C)c1-c1cccc(CNc2ccc3c(c2)OC[C@H]3CC(=O)O)c1C [Example 242, 1,3-dihydroxy-2-(hydroxymethyl)propan-2-aminium [(3S)-6-({3[4,6-dimethyl-2-(morpholin-4-yl)pyrimidin-5-yl]-2-methylbenzyl}amino)-2,3-dihydro-1-benzofuran-3-yl]acetate] | 121 |
